Structures are written as SMILES.

Data set [1] can be described thus: Ratiometric fluorescence response (F526/F576) to Cu(I) in aqueous buffer. The procedure:
UV-vis absorption and emission measurements. FCP-1 stock solution in DMSO (5 mM) was prepared, aliquoted and stored at […]. For each spectroscopic measurement, a fresh aliquot was diluted to 500 μM by DMSO and further diluted with PBS containing 2 mM GSH/PEG-400 mixture (3:2, v/v) to prepare the sensing solution with 5 μM of FCP-1. The sensing solution was pre-incubated in a water bath at 37° C., and then [Cu(CH3CN)](PF6) in MeCN or other metal ions in H2O was added. The solution mixture was kept at 37° C. and taken out for UV-vis absorption or emission spectroscopic measurements in quartz cuvette at predetermined time intervals. Emission spectra were corrected using coumarin 153 as secondary emission standard (4). Photoluminescence quantum yield (PLQY) was determined using fluorescein in 0.1 M NaOH solution (0.95; λex=496 nm). FRET efficiency from the fluorescein moiety to rhodamine moiety of FCP-1 was estimated by [1−(PLQY of FCP-1/PLQY of FL-TPA)].
The ratiometric fluorescence change of FCP-1 at 526 and 576 nm (F526/F576) was rapid and reached saturation after ca. 30 min in the presence of a two-fold excess of Cu(I) (10 μM).

The nature of data set [2]: Oxidation state specificity of the ratiometric response. How it is done:
(A) Changes in corrected emission spectra of FCP-1 (5 μM) in aqueous buffer solution. […] (B) Corrected emission spectra of FCP-1 measured at various concentrations. […] (D) Changes in F526/F576 ratio of FCP-1 (5 μM) towards various biologically relevant metal ions, as well as cobalt(II)-containing vitamin B12. Black bars represent the ratiometric emission response observed upon addition of competing metal ions (1 mM for Na^+, K^+, Mg^2+ and Ca^2+, and 10 μM for all the other d-block metal ions as well vitamin B12) after 15 min. Red bars represent the ratiometric emission response upon subsequent addition of 10 μM of Cu(I) after 15 min. (E) Emission spectra and (F) F526/F576 emission ratio of FCP-1 (5 μM) with addition of Cu(II) (10 μM), Cu(II) (10 μM)+GSH (2 mM), or Cu(I) (10 μM)+GSH (2 mM) after 15 min. All spectra were acquired in aqueous buffer (PBS with 2 mM GSH and 40 vol % PEG-400) with λex=458 nm.
UV-vis absorption and emission measurements. FCP-1 stock solution in DMSO (5 mM) was prepared, aliquoted and stored at […]. For each spectroscopic measurement, a fresh aliquot was diluted to 500 μM by DMSO and further diluted with PBS containing 2 mM GSH/PEG-400 mixture (3:2, v/v) to prepare the sensing solution with 5 μM of FCP-1. […] Photoluminescence quantum yield (PLQY) was determined using fluorescein in 0.1 M NaOH solution (0.95; λex=496 nm). […]

Setting [3] is: FCP-1 5 μM, Cu(I) 10 μM, over time, λex 458 nm.

Regarding `CC[N+](CC)=c1ccc2c(-c3ccccc3C(=O)O)c3ccc(N4CCN(Cc5cccc(CN(Cc6ccccn6)Cc6cccc(COc7ccc8c(-c9ccccc9C(=O)OC)c9ccc(=O)cc-9oc8c7)n6)n5)CC4)cc3oc-2c1` [FCP-1], in data set [1] (FCP-1 5 μM, Cu(I) 10 μM, 15 min, PBS with 40 vol % PEG-400), the “F526/F576 ratio with Cu(I) at different GSH concentrations” value is on record as “higher F526/F576 ratios at lower GSH concentrations”. In data set [1] (setting [3]), the “fluorescein emission at 526 nm upon addition of Cu(I)” value was “increase in fluorescein emission at 526 nm” and the “rhodamine fluorescence at 576 nm upon addition of Cu(I)” value is “drop in rhodamine fluorescence at 576 nm”. In addition, the “total fluorescence at higher probe concentrations” value in data set [1] (aqueous buffer, λex 458 nm (FIG. 8)) is reported as “less fluorescent at higher concentrations”. Also, the “time to saturation of ratiometric fluorescence change F526/F576” value in data set [1] (two-fold excess of Cu(I) (10 μM)) is given as “ca. 30 min”. For the same compound, in data set [2] (Cu(II) 10 μM + GSH 2 mM, compared with Cu(I) 10 μM + GSH 2 mM), the “emission spectra and F526/F576 ratio with Cu(II) and excess glutathione” value was “identical to that obtained by treating FCP-1 with Cu(I) and excess glutathione”. For the same compound, the “ratiometric response to Cu(II)” value in data set [2] (Cu(II) 10 μM, 15 min) was “does not respond ratiometrically”.

The values are drawn from patent US12241902B2, “Probes for detection of copper” (The Regents of the University of California, priority 2019, dated 2025).
